Reference: patent US12325688B2, “Gingerenone A prodrugs as sensotherapeutics and methods of use” (The U.S.A., as Represented by the Secretary, Department of …, priority 2022, dated 2025)
“Also recorded” adds a separate entry of the source.

Assays:
Assay type in all cases: cell-based, human
[1] = system: IR-induced senescent WI-38 fibroblasts; test: MTT cell viability assay, senescent cells; details: for senolytic activity (selective decrease of viability of senescent cells): components at 100 μM, 6-shogaol 3.6 μM, 8-shogaol 33 μM, 6-gingerol 20 μM; for senescent cell viability: D+Q 250 nM dasatinib + 10 μM quercetin, gingerenone A 20 μM, 6-shogaol 72.4 nM
Method: Cell culture and treatments: WI-38 human diploid fibroblasts (HDFs) were cultured in Dulbecco's modified Eagle's medium (DMEM) supplemented with 10% heat-inactivated fetal bovine serum (FBS), penicillin and streptomycin, and non-essential amino acids at 37° C. in a 5% CO2 incubator. HDFs were rendered senescent by exposure to 10 Gy of ionizing radiation (IR) and then cultured for an additional ten days. Proliferating and senescent WI-38 cells were seeded in triplicate overnight at 2×10^5 cells/well (in 6 well plates) to achieve ˜-60% confluence by the next day. Cells were then treated with the extracts for times indicated. […]
MTT cell viability: The MTT assay (BioVision Milpitas, CA) was carried out following the manufacturer's protocol. Briefly, the media was gently removed from each well and 50 μl of serum-free medium+50 μl of Solution A were added to each well. The plates were incubated at 37° C. for MTT reduction into formazan for 3 h. Next, 150 μl Solution B was added to each well and the plate was covered with foil and shaken at 600 rpm for 15 min. The absorbance was measured at 590 nm using Enspire, Perkin Elmer Multimode plate reader. […]
WI-38 fibroblasts were rendered senescent by exposure to ionizing radiation (IR, 10 Gy) and cultured for an additional 10 days. […] Data represent the means and standard error from three biological replicates. The major components of ginger extract, namely 6-gingerol, 8-gingerol, 10-gingerol, 6-shogaol, 8-shogaol, gingerenone A, and zingerone, were screened for their ability to selectively decrease cell viability of senescent cells using the MTT assay (FIG. 10A).

[2] = system: proliferating WI-38 fibroblasts; test: MTT cell viability assay, proliferating cells; details: 48 h; D+Q 250 nM dasatinib + 10 μM quercetin, gingerenone A 20 μM, 6-shogaol 72.4 nM
Method: Cell culture and treatments: WI-38 human diploid fibroblasts (HDFs) were cultured in Dulbecco's modified Eagle's medium (DMEM) supplemented with 10% heat-inactivated fetal bovine serum (FBS), penicillin and streptomycin, and non-essential amino acids at 37° C. in a 5% CO2 incubator. HDFs were rendered senescent by exposure to 10 Gy of ionizing radiation (IR) and then cultured for an additional ten days. Proliferating and senescent WI-38 cells were seeded in triplicate overnight at 2×10^5 cells/well (in 6 well plates) to achieve ˜-60% confluence by the next day. Cells were then treated with the extracts for times indicated.
In 24-well plates, cells were treated with multiple dilutions (1:200 and 1:500) of Harpagophytum procumbens (Devil's Claw) (herb to menstruum ratio, 1:3), Uncaria tomentosa (Cat's Claw) (herb to menstruum ratio, 1:3), Zingiber officinale Rosc. […]
MTT cell viability: The MTT assay (BioVision Milpitas, CA) was carried out following the manufacturer's protocol. […] The absorbance was measured at 590 nm using Enspire, Perkin Elmer Multimode plate reader.
Four plant extracts were screened for senolytic activity, including extracts from Harpagophytum procumbens (Devil's Claw), Uncaria tomentosa (Cat's Claw), Zingiber officinale Rosc. […] In FIG. 8B, the impact on ginger extract on proliferating and senescent cells on cell survival was assessed by the MTT cell viability assay.

[3] = system: senescent WI-38 fibroblasts; test: Secreted SASP cytokines and chemokines (ELISA, multiplex, V-PLEX)
Method: Secreted protein analysis—ELISA, Luminex Multiplex and V-PLEX: Media was collected at the earliest timepoint (24 h after treatments) to avoid cell death that could interfere with the assay. The media was centrifuged at 1000×g for 5 min to remove debris. The secretion of IL-6 was measured by the Quantikine ELISA Kit (R&D systems) and the expression of pro-inflammatory cytokines and chemokines [IL-6, TNFα, CCL2 (MCP-1), IL-8, IFNβ] was also assessed by multiplex assays (customized Luminex plate, R&D) according to the manufacturer's instructions. The V-PLEX Plus Proinflammatory Panel 1 Human Kit and the Chemokine Panel 1 preparation and detection were carried out following the manufacturer's protocol (Mesoscale Diagnostics) using >80% confluency of proliferating or senescent cells on 24-well plates. Briefly, different concentrations of standards and samples were added to the plates, and they were incubated for 2 h on a microplate shaker. The plates were washed, and the corresponding detection antibody mixture was added to each well and incubated for 1 h with shaking. The plates were washed twice then Read buffer was added to each well. The plates were read on the MESO Quickplex SQ 120 (MSD, Rockville, MD) and protein concentrations were determined using MSD Discovery workbench 4.0. The effects of gingerenone A, 6-shogaol and D+Q on cytokines and chemokines that are known to be part of the senescence-associated secretory phenotype (SASP) were tested. WI-38 fibroblasts were rendered senescent by exposure to ionizing radiation (IR, 10 Gy) and cultured for an additional 10 days. Cells were then treated with gingerenone A (20 μM) and 6-shogaol (72.4 nM) and incubated for 24 h. CCL-2 (MCP-1) and IL-10 were measured using the Bio-plex (Multiplex); IL6 was measured using Quantikine IL-6 (R&D) (FIG. 12A). Data were normalized to cell number/total protein content. Data in graphs represent the means and standard error from three biological replicates. […] Ratios of cleaved pro-caspase 3 to total caspase 3, normalized to ACTB levels, are shown as relative to control proliferating cells. Cytokines (FIG. 13A) and chemokines (FIG. 13B) were measured using the V-plex panel (MSD) after treatment for 24 h with the indicated drugs. Relative secretion was measured as pg/ml vs control normalized on TE. Data in the graphs represent the means and standard error from three biological replicates.

[4] = system: proliferating and senescent WI-38 fibroblasts; test: Western blot of apoptotic pathway proteins; details: 48 h; for expression of anti-apoptotic protein Bcl-XL / levels of pro-apoptotic protein cleaved caspase-3: senescent cells
Method: Protein analysis: Cells were lysed in RIPA lysis buffer (Pierce, ThermoFisher) containing protease and phosphatase inhibitors (Roche) and incubated on ice for 10 min. The lysates were then sonicated for 5 min and centrifuged for 10 min at 4° C. to remove the insoluble fraction. The remaining supernatant was the whole-cell lysate. Lysates were separated by SDS-polyacrylamide gel electrophoresis (SDS-PAGE) and transferred onto nitrocellulose membranes (Biorad). Incubations with primary antibodies recognizing p21, p53, Beta-Actin (ACTB) (Santa Cruz Biotechnology), as well as caspase-3 (Abcam) and Bcl-XL (Cell Signaling) were followed by incubations with the appropriate secondary antibodies conjugated with horseradish peroxidase (GE Healthcare). Signals were developed using Enhanced Chemiluminescence (ECL) and acquired by using the ChemiDoc MP Imaging System (BioRad).
The effects of gingerenone A, 6-shogaol and D+Q on cytokines and chemokines that are known to be part of the senescence-associated secretory phenotype (SASP) were tested. WI-38 fibroblasts were rendered senescent by exposure to ionizing radiation (IR, 10 Gy) and cultured for an additional 10 days. Cells were then treated with gingerenone A (20 μM) and 6-shogaol (72.4 nM) and incubated for 24 h. CCL-2 (MCP-1) and IL-10 were measured using the Bio-plex (Multiplex); IL6 was measured using Quantikine IL-6 (R&D) (FIG. 12A). Data were normalized to cell number/total protein content. Data in graphs represent the means and standard error from three biological replicates. […] Ratios of cleaved pro-caspase 3 to total caspase 3, normalized to ACTB levels, are shown as relative to control proliferating cells. Cytokines (FIG. 13A) and chemokines (FIG. 13B) were measured using the V-plex panel (MSD) after treatment for 24 h with the indicated drugs. Relative secretion was measured as pg/ml vs control normalized on TE. Data in the graphs represent the means and standard error from three biological replicates.
To determine whether gingerenone A and 6-shogaol might influence the apoptotic pathway, their effect on the levels of cleaved caspase-3 (pro-apoptotic marker), and Bcl-XL (anti-apoptotic protein) (FIG. 12B) was tested. […] However, D+Q, gingerenone A, and 6-shogaol all reduced the expression of the anti-apoptotic protein Bcl-XL in senescent cells (FIG. 12B, right).

SMILES: CCCCC[C@H](O)CC(=O)CCc1ccc(O)c(OC)c1 [6-gingerol]
- senolytic activity (selective decrease of viability of senescent cells) ([1]; 72 h): only 6-shogaol and gingerenone A displayed senolytic activity

SMILES: CCCCC/C=C/C(=O)CCc1ccc(O)c(OC)c1 [6-shogaol]
- effect on proliferating (non-irradiated) cells [2]: significant increase
- changes in any of the cytokines and chemokines measured ([3]; 24 h, 72.4 nM): did not induce major changes
- senescent cell viability ([1]; 48 h): moderate degree of cell death
- senolytic activity (selective decrease of viability of senescent cells) ([1]; 72 h): displayed senolytic activity
- expression of anti-apoptotic protein Bcl-XL [4]: reduced
- levels of pro-apoptotic protein cleaved caspase-3 [4]: increase

SMILES: CCCCCCC[C@H](O)CC(=O)CCc1ccc(O)c(OC)c1 [8-gingerol]
- senolytic activity (selective decrease of viability of senescent cells) ([1]; 72 h): only 6-shogaol and gingerenone A displayed senolytic activity

SMILES: CCCCCCC/C=C/C(=O)CCc1ccc(O)c(OC)c1 [8-shogaol]
- senolytic activity (selective decrease of viability of senescent cells) ([1]; 72 h): only 6-shogaol and gingerenone A displayed senolytic activity

SMILES: CCCCCCCCC[C@H](O)CC(=O)CCc1ccc(O)c(OC)c1 [10-gingerol]
- senolytic activity (selective decrease of viability of senescent cells) ([1]; 72 h): only 6-shogaol and gingerenone A displayed senolytic activity

SMILES: COc1cc(CC/C=C/C(=O)CCc2ccc(O)c(OC)c2)ccc1O [gingerenone A, Gingerenone A]
- effect on proliferating (non-irradiated) cells [2]: did not show any significant effect
- level of anti-inflammatory cytokine IL-13 ([3]; 24 h, FIG. 13A): increased
- level of pro-inflammatory cytokine IL-8 ([3]; 24 h, FIG. 13A): increased
- level of IL-10 ([3]; 24 h, V-plex, FIG. 13A): unchanged
- level of IL-10, listed with IL-8 as pro-inflammatory cytokine ([3]; 24 h, V-plex, FIG. 13A): increased
- secreted level of interferon γ-induced protein 10 (IP-10) ([3]; 24 h, V-plex, FIG. 13B): reduced
- level of anti-inflammatory cytokine IL-10 ([3]; 24 h, multiplex ELISA (Bio-plex), FIG. 12A): increase
- secreted level of CCL2 (MCP-1) ([3]; 24 h, gingerenone A 20 μM, D+Q): reduced
- secreted level of IL-6 ([3]; 24 h, gingerenone A 20 μM, D+Q): reduced
- secretion of pro-inflammatory SASP cytokine IL-1B ([3]; senescent cells): increase
- senescent cell viability relative to proliferating cells ([1]; 20 μM, 48 h): significant decrease; also recorded: significantly decreased
- selectivity for senescent over proliferating cells ([1]; 48 h, 20 μM, compared to D+Q): higher selectivity compared to D+Q
- senescent cell viability ([1]; 48 h): significantly decreased
- senolytic activity (selective decrease of viability of senescent cells) ([1]; 72 h): displayed senolytic activity
- IC50 ([1]; Homo sapiens, WI-38, light or radiation study, dose response 2.5-100 μM, 72 h, 10 days post-irradiation): 19.6 ± 2.1 µM
- p53 levels ([4]; proliferating and senescent cells): did not increase
- expression of anti-apoptotic protein Bcl-XL [4]: reduced
- levels of pro-apoptotic protein cleaved caspase-3 [4]: increase

SMILES: COc1cc(CCC(C)=O)ccc1O [zingerone]
- senolytic activity (selective decrease of viability of senescent cells) ([1]; 72 h): only 6-shogaol and gingerenone A displayed senolytic activity
